Results: PMC7982320 (Pharmacology Research & Perspectives, 2021)
“And” between values parts separate entries of the source, which are not always exact repeats. Identical values can stand only once. “Also recorded” adds a separate entry of the source. Like-named read-outs stand apart in the source and are kept apart here.

What was measured:
human OAT1 = target: T1, human OAT1 (Homo sapiens, UniProt Q4U2R8); assay: Transporter inhibition, uptake assay; type: in vitro ADME
T1 sequence (Q4U2R8 1-563): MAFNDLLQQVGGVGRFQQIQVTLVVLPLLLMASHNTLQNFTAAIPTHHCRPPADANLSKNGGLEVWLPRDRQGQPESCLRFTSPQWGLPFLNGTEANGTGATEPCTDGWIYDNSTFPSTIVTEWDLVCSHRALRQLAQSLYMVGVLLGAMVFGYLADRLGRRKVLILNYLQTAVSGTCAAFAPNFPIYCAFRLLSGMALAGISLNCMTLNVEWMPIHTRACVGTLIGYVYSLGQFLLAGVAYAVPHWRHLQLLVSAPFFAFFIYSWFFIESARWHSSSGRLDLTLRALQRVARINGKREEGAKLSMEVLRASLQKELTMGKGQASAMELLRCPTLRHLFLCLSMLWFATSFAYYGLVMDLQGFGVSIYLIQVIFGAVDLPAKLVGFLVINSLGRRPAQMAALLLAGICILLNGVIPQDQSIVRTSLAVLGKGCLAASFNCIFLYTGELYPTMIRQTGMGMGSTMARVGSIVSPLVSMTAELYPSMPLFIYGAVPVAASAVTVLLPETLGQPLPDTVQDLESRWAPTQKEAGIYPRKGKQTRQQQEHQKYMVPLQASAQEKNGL

human BSEP = human BSEP (Homo sapiens, UniProt O95342); assay: Transporter inhibition, vesicular transport assay; type: in vitro ADME
Sequence of human BSEP (O95342 whole entry): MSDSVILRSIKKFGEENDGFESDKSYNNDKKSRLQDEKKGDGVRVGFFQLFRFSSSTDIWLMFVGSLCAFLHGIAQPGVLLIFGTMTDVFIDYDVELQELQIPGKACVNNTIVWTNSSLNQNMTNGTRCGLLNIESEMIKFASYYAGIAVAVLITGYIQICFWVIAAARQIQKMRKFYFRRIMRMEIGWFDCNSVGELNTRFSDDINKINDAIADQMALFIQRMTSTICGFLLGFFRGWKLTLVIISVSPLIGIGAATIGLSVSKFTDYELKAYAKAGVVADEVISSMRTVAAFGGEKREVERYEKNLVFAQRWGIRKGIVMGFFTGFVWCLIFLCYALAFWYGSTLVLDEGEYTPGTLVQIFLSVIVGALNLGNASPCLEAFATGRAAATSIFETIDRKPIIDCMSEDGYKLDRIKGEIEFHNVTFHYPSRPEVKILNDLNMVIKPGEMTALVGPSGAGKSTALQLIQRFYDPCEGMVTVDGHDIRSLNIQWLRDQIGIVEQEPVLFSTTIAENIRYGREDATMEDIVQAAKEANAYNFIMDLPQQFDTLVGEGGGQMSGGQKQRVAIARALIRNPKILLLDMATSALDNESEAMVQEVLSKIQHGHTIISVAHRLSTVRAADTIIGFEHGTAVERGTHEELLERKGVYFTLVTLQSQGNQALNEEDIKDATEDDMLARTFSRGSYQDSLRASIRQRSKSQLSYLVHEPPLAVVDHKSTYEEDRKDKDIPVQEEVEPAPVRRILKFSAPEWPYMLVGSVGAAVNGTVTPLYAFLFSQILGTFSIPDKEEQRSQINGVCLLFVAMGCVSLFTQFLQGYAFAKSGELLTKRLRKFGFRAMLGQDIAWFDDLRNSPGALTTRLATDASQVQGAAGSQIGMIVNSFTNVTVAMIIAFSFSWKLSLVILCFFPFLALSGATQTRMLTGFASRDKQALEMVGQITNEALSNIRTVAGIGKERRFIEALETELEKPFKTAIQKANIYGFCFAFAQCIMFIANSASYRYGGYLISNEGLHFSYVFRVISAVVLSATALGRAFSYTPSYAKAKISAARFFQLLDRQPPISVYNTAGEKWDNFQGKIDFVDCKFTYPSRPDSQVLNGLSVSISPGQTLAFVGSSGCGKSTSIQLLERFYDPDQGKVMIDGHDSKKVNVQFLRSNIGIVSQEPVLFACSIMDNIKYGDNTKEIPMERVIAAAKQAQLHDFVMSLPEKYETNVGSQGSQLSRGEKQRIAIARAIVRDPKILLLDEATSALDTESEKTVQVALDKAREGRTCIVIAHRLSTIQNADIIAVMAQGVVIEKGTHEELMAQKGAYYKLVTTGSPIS

human MATE1 = target: T2, human MATE1 (Homo sapiens, UniProt Q96FL8); assay: Transporter inhibition, uptake assay; type: in vitro ADME
T2 sequence (Q96FL8 1-570): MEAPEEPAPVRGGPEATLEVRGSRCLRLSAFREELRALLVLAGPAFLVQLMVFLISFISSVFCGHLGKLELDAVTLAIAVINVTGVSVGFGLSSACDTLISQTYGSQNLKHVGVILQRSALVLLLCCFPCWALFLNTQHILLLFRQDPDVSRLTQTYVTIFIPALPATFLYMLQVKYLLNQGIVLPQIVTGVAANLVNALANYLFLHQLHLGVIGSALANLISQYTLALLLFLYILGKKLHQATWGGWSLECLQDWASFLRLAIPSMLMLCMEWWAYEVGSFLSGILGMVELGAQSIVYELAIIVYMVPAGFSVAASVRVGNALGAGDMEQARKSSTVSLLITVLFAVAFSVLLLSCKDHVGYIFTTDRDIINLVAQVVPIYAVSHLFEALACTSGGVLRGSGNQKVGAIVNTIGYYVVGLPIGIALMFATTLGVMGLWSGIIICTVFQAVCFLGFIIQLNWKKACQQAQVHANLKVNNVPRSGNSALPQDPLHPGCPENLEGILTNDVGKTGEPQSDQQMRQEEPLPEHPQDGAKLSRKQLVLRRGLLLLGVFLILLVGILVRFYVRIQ

CYP3A4 = CYP3A4 (Homo sapiens, UniProt P08684); assay: CYP inhibition in pooled human liver microsomes, midazolam or testosterone probe; type: in vitro ADME; details: for IC50: read-out: IC50, No preincubation, pooled HLMs, n = 3
Sequence of CYP3A4 (P08684 whole entry): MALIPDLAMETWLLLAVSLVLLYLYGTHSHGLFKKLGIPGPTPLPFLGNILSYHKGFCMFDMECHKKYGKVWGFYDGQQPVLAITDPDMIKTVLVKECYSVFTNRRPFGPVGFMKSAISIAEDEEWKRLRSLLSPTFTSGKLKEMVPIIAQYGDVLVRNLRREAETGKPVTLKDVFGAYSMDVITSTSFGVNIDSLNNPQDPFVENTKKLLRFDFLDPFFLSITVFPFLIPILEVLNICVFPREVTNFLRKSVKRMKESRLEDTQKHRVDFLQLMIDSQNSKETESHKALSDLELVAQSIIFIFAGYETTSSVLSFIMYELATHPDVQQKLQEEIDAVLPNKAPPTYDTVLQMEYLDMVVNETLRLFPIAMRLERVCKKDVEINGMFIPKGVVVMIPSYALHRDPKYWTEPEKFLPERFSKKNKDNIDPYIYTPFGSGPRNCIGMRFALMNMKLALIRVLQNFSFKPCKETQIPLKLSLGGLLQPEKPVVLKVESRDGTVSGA

CYP1A2 [1] = target: CYP1A2 (Homo sapiens, UniProt P05177); type: in vitro ADME; details: read-out: IC50, No preincubation; CYP1A2, pooled HLMs, n = 3
Sequence of CYP1A2 (Homo sapiens, UniProt P05177) (P05177 whole entry): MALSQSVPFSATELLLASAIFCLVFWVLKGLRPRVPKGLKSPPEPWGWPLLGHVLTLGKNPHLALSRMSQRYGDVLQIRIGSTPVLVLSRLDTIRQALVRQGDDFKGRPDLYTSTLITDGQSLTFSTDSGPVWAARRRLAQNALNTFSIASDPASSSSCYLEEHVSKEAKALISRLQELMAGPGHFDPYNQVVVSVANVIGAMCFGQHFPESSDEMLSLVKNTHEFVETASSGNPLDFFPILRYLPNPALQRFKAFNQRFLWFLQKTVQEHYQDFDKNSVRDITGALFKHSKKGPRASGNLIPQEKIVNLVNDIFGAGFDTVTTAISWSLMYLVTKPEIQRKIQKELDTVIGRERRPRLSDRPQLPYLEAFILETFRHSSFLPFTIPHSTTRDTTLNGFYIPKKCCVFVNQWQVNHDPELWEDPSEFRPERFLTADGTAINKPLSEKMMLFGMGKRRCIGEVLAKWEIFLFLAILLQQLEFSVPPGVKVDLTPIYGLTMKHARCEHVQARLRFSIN

human OCT2 = target: T3, human OCT2 (Homo sapiens, UniProt O15244); assay: Transporter inhibition, uptake assay; type: in vitro ADME
T3 sequence (O15244 1-555): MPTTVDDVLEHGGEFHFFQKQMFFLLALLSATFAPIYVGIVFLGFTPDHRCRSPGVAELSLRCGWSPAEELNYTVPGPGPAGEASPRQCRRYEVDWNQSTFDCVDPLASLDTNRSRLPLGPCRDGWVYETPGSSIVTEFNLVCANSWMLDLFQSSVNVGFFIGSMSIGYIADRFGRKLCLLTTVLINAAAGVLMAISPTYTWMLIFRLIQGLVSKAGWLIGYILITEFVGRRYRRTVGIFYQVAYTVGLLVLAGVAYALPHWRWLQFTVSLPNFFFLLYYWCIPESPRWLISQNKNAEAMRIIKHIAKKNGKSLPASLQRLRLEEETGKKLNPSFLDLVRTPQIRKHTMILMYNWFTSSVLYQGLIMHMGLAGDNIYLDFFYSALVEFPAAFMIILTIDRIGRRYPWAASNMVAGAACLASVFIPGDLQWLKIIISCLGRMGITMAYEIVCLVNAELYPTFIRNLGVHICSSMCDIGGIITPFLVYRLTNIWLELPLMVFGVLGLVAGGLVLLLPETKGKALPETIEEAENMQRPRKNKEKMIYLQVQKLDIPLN

CYP1A2 [2] = assay: in vitro; type: in vitro ADME, human; details: 48 h
CYP2D6 = CYP2D6 (Homo sapiens, UniProt P10635); assay: CYP inhibition in pooled human liver microsomes, dextromethorphan probe; type: in vitro ADME; details: read-out: IC50, No preincubation; CYP2D6, pooled HLMs, n = 3
Sequence of CYP2D6 (P10635 whole entry): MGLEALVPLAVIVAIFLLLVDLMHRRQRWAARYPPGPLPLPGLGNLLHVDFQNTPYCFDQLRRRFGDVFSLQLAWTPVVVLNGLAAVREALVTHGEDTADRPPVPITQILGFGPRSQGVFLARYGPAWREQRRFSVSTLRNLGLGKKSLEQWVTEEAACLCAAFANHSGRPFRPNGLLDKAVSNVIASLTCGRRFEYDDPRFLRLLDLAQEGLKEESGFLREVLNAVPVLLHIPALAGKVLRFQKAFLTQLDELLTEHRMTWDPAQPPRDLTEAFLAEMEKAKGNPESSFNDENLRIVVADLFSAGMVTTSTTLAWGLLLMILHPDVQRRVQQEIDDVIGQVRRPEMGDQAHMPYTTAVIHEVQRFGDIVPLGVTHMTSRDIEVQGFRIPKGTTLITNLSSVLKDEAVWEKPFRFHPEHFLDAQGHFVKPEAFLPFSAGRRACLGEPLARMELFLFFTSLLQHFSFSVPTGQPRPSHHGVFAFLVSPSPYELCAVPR

## CC1=N[C@]2(C(=O)CO)[C@@H](C[C@H]3[C@@H]4C[C@@H](O)C5=CC(=O)C=C[C@]5(C)[C@H]4[C@@H](O)C[C@@]32C)O1 [6β‐OH‐21‐desDFZ, 6β‐Hydroxy‐21‐desacetyl deflazacort]
Human OAT1; OAT1, up to 50 µM
  inhibitory interaction with transporter: did not show interaction; also recorded: no inhibitory interaction
Human OAT1; OAT1 UPT, n = 3
  Maximum inhibition at 50 µM: <20 % of control
Human BSEP; BSEP VT, n = 3
  Maximum inhibition at 50 µM: 27 % of control
Human BSEP; BSEP, up to 50 µM
  inhibitory interaction with transporter: no inhibitory interaction
Human MATE1; MATE1, up to 50 µM
  inhibitory interaction with transporter: no inhibitory interaction
Human MATE1; MATE1 UPT, n = 3
  Maximum inhibition at 50 µM: 26 % of control
CYP3A4; CYP3A4, Cmax 0.34 µM, assumed 100% free
  estimated plasma Cmax/IC50 ratio: 0.01
CYP3A4; CYP3A4 (Midazolam)
  IC50: ~35 µM and ≥ 20 µM
CYP3A4; CYP3A4 (Midazolam), listed as 6β‐hydroxy‐21‐desacetyl deflazacort
  IC50: 35 µM
CYP3A4; CYP3A4 (Testosterone)
  IC50: > 50 µM
CYP1A2 [1]
  IC50: > 50 µM
Human OCT2; OCT2, up to 50 µM
  inhibitory interaction with transporter: did not show interaction; also recorded: no inhibitory interaction
Human OCT2; OCT2 UPT, n = 3
  Maximum inhibition at 50 µM: <20 % of control
CYP1A2 [2]; donor one, 0.002 µM
  CYP1A2 enzyme activity fold induction: 0.783 fold
  CYP1A2 mRNA fold induction: 0.657 fold
CYP1A2 [2]; donor one, 0.01 µM
  CYP1A2 enzyme activity fold induction: 0.671 fold
  CYP1A2 mRNA fold induction: 0.735 fold
CYP1A2 [2]; donor one, 0.05 µM
  CYP1A2 enzyme activity fold induction: 0.649 fold
  CYP1A2 mRNA fold induction: 0.735 fold
CYP1A2 [2]; donor one, 0.25 µM
  CYP1A2 enzyme activity fold induction: 0.753 fold
  CYP1A2 mRNA fold induction: 0.667 fold
CYP1A2 [2]; donor one, 5 µM
  CYP1A2 enzyme activity fold induction: 0.770 fold
  CYP1A2 mRNA fold induction: 0.628 fold
CYP1A2 [2]; donor one, 10 µM
  CYP1A2 enzyme activity fold induction: 0.772 fold
  CYP1A2 mRNA fold induction: 0.619 fold
CYP1A2 [2]; donor one, 20 µM
  CYP1A2 enzyme activity fold induction: 0.699 fold
  CYP1A2 mRNA fold induction: 0.741 fold
CYP1A2 [2]; donor three, 0.002 µM
  CYP1A2 enzyme activity fold induction: 1.01 fold
  CYP1A2 mRNA fold induction: 0.665 fold
CYP1A2 [2]; donor three, 0.01 µM
  CYP1A2 enzyme activity fold induction: 0.892 fold
  CYP1A2 mRNA fold induction: 0.744 fold
CYP1A2 [2]; donor three, 0.05 µM
  CYP1A2 enzyme activity fold induction: 0.812 fold
  CYP1A2 mRNA fold induction: 0.701 fold
CYP1A2 [2]; donor three, 0.25 µM
  CYP1A2 enzyme activity fold induction: 0.747 fold
  CYP1A2 mRNA fold induction: 0.610 fold
CYP1A2 [2]; donor three, 5 µM
  CYP1A2 enzyme activity fold induction: 0.870 fold
  CYP1A2 mRNA fold induction: 0.635 fold
CYP1A2 [2]; donor three, 10 µM
  CYP1A2 enzyme activity fold induction: 0.954 fold
  CYP1A2 mRNA fold induction: 0.647 fold
CYP1A2 [2]; donor three, 20 µM
  CYP1A2 enzyme activity fold induction: 0.955 fold
  CYP1A2 mRNA fold induction: 0.723 fold
CYP1A2 [2]; donor two, 0.002 µM
  CYP1A2 enzyme activity fold induction: 0.913 fold
  CYP1A2 mRNA fold induction: 0.978 fold
CYP1A2 [2]; donor two, 0.01 µM
  CYP1A2 enzyme activity fold induction: 0.880 fold
  CYP1A2 mRNA fold induction: 0.871 fold
CYP1A2 [2]; donor two, 0.05 µM
  CYP1A2 enzyme activity fold induction: 0.838 fold
  CYP1A2 mRNA fold induction: 0.928 fold
CYP1A2 [2]; donor two, 0.25 µM
  CYP1A2 enzyme activity fold induction: 0.832 fold
  CYP1A2 mRNA fold induction: 0.979 fold
CYP1A2 [2]; donor two, 5 µM
  CYP1A2 enzyme activity fold induction: 1.18 fold
  CYP1A2 mRNA fold induction: 0.786 fold
CYP1A2 [2]; donor two, 10 µM
  CYP1A2 enzyme activity fold induction: 1.07 fold
  CYP1A2 mRNA fold induction: 0.840 fold
CYP1A2 [2]; donor two, 20 µM
  CYP1A2 enzyme activity fold induction: 1.18 fold
  CYP1A2 mRNA fold induction: 0.886 fold
CYP2D6
  IC50: > 50 µM
